Where two headings read alike, the source gives them in different places.
Legend:
[1] = Cytotoxic concentration in CEM cells (antiviral tests); assay type: cell-based, human; conditions: human; First and Second Series, second table; viability of CEM cells
Description: (§1) The toxicity and the antiviral activities were measured at different concentrations, and their evolution as a function of the concentration makes it possible to evaluate: • the concentration at which 50% of the cells are dead in the absence of virus (CC 50) for each of the test compounds, from the change in absorbance at 540 nm of formazan as a function of the concentration of test compound, • the concentration of compound that leads to a 50% reduction in the activity of viral reverse transcriptase (EC 50). This concentration is determined from the curve representing the change in the percentage of “remaining reverse transcriptase” activity (defined as being the ratio of the activity of the reverse transcriptase in the presence of the test compound to that of the untreated cells) as a function of the concentration of test compound.
(§2) CC50: cytotoxic concentration or concentration required to reduce the viability of the CEM cells by 50%.

HIV-1 = assay: Anti-HIV-1 effect in CEM cells; assay type: cell-based; conditions: Human immunodeficiency virus 1, CCRF-CEM
Description: (§3) The evaluation test is described in Roy, B.; Chambert, S.; Lepoivre M.; Aubertin, A.-M.; Balzarini, J.; Décout, J.-L., Deoxyribonucleoside 2′- or 3′-mixed disulfides: prodrugs to target ribonucleotide reductase and/or to inhibit HIV reverse transcription. J. Med. Chem. 2003, 46, 2565-2568.
as §1
(§4) EC50: concentration required to afford 50% protection to the CEM cells against the cytopathogenicity of HIV;

HeLa cells = assay: Cytotoxic effect on HeLa cells; assay type: cell-based; design: unit not given beside the values; conditions: Tables 5 and 7, HeLa cells
[2] = test system: L1210/0 murine leukemia cells; assay: Cytotoxic effect on L1210/0 cells; assay type: cell-based; conditions: Tables 5 and 7, L1210/0 cells
Moloney sarcoma virus = assay: Inhibition of transformation of mouse embryo C3H/3T3 cells induced by Moloney sarcoma virus; assay type: cell-based; design: MIC (minimum inhibitory concentration): unit not given here; conditions: for EC50: C3H/3T3, read-out: EC50 (effective concentration 50%); for MIC (minimum inhibitory concentration): C3H/3T3 cells, a second bound is given in brackets for some compounds
From the text: 2.2. Inhibitory Effect on the Transformation of Mouse Embryo C3H/3T3 Cells Induced by Moloney Sarcoma Virus (Model of Infection with HIV)

human CEM cells = assay: Cytotoxicity (MTT) on CEM cells; assay type: cell-based; conditions: for EC50: Tables 4 and 6, CEM cells, some values 'then plateau'; for CC50: read-out: CC50 CEM
Description: (§5) The cytotoxic effect of a compound is studied on human CEM cells and MCF-7 mammary carcinoma cells that are or are not resistant to gemcitabine, which is an anticancer nucleoside used in chemotherapy.
(§6) The cytotoxicity (CC50) was estimated by measuring the reduction of 3-(4,5-dimethylthiazol-2-yl)-2,5-diphenyltetrazolium bromide (MTT), which is converted into insoluble violet formazan. To do this, 100 000 cells (human CEM-SS or MCF-7 lines) are inoculated per well in 100 μl of culture medium, in 96-well microtitration plates. After 24 hours, the test products are added in 100 μl and incubation is continued for 48 to 72 hours. MIT is then added in a proportion of 20 μl of a solution at 5 mg/ml in PBS. Three hours later, 100 μl of a DMF/acetic acid/HCl/SDS (sodium dodecyl sulfate) solution are added. After 3 hours at 37° C., the absorbance of the formazan is measured at 590 nm and compared with that of the untreated control.

HIV-2 [3] = assay: Anti-HIV-2 effect in CEM/TK− cells; assay type: cell-based; conditions: Human immunodeficiency virus 2, CEM-TK(-); Third Series; CEM cells having no thymidine kinase activity
Description: as §3, §1, §4
• Effect in CEM not expressing thymidine kinase activity (CEM/TK^−, cells having no thymidine kinase activity).

HIV-2 [4] = assay: Anti-HIV-2 effect in CEM cells; assay type: cell-based; conditions: Human immunodeficiency virus 2, CCRF-CEM, read-out: EC50 HIV-2
Description: as §3, §1, §4

human CEM T4 lymphocytes = assay: Cytotoxic effect on CEM T4 lymphocytes; assay type: cell-based; design: unit not given beside the values; conditions: Tables 5 and 7, CEM cells
[5] = test system: FM3A/0 murine mammary carcinoma cells; assay: Cytotoxic effect on FM3A/0 cells; assay type: cell-based; design: unit not given beside the values; conditions: Tables 5 and 7, FM3A/0 cells
human Molt4/C8 cells = assay: Cytotoxic effect on Molt4/C8 cells; assay type: cell-based; conditions: Tables 5 and 7, Molt4/C8 cells
[6] = test system: MCF-7 mammary carcinoma cells; assay: Cytotoxicity (MTT) on MCF-7 cells; assay type: cell-based, human; conditions: Homo sapiens; for CC50: MCF7, read-out: CC50 MCF-7
Description: as §5, §6

[7] = test system: MCF-7* (MCF-7 mammary carcinoma cells resistant to gemcitabine); assay: Cytotoxicity (MTT) on gemcitabine-resistant MCF-7 cells; assay type: cell-based, human; conditions: listed as printed twice per table
Description: as §5, §6
Compounds 1 and 3 to 8 corresponding to formula (II) above; compound 2 corresponding to the non-silyl compound, it corresponds to formula (II) above in which R1 represents CH2CH2CH(CH3)2 and was also tested to observe a possible effect of the silicon. These compounds were evaluated for their cytotoxicity on human CEM cells and MCF-7 mammary carcinoma cells resistant (MCM-7*) or non-resistant (MCF-7) to gemcitabine, which is an anticancer nucleoside used in chemotherapy.

CEM cells = assay: Cytotoxic concentration in CEM cells (antiviral tests); assay type: cell-based, human; conditions: First and Second Series, second table; viability of CEM cells
Description: as §1, §2

[8] = test system: human CEM-SS T lymphoma cells; assay: Measurement of the intracellular concentrations of 2′-deoxyribonucleotides (dNTP); assay type: cell-based; conditions: 24 hours; for activity at 50 µM: 1 at 50 μM
Description: The protocol adopted for performing this test (Roy, B.; Beuneu, C.; Roux, P.; Buc, H.; Lemaire, G.; Lepoivre, M. Simultaneous determination of pyrimidine or purine deoxyribonucleoside triphosphates using a polymerase assay. Anal. Biochem., 1999, 269, 403-409) consists in culturing human CEM-SS T lymphoma cells in the presence of the test compounds. The concentrations of dNTP and in particular of dATP are measured after 24 hours of incubation. dATP is the nucleoside triphosphate whose concentration decreases the most during tests with standard ribonucleotide reductase inhibitors such as hydroxyurea, which was used as control.
The quantification is related to the number of live cells counted after staining with trypan blue or related to the initial number of cells (approximately two million). It is measured as a percentage relative to a control manipulation.
The effects of compound 1 at 50 μM on the concentrations of 2′-deoxynucleoside 5′-triphosphates (dNTP) necessary for DNA synthesis are calculated from the dNTP concentrations measured after 24 hours and determined in pmol of dNTP/million cells. The percentages are expressed as a percentage of the control with an average of four controls, taking the counts into account, and are compared with that of an anticancer agent, hydroxyurea (HU), tested at a concentration of 63 μM.

[9] = test system: L1210 cell line (mouse lymphoma); assay: Incorporation of tritiated thymidine; assay type: cell-based; conditions: L1210 cells
Description: These tests are performed on the L1210 cell line (mouse lymphoma) according to a published protocol (Lepoivre M., Flaman J.-M., Bobé P., Lemaire G., Henry Y. J. Biol. Chem., 1994, 269, 21891-21897). The wells are inoculated (10 000 cells per well) and, after culturing for 72 hours, [^3H]thymidine and the test compound are added to the culture medium. After incubation for 8 hours, the DNA is separated from the other cell constituents and the amount of labeled thymidine incorporated is quantified and compared with a control (without compound).
The effects of compound 1 at 50 μM and 200 μM, respectively, on the concentrations of tritiated thymidine incorporated are expressed as a percentage of the control.

[10] = First and Second Series, second table, read-out: EC50 HIV-1
[11] = Third Series, read-out: EC50 HIV-1
[12] = First and Second Series, second table, CEM cells
[13] = Homo sapiens, MCF7, MCF-7 resistant to gemcitabine

Structure (SMILES)	CC50 [1] [µM]	EC50 (HIV-1; [10]) [µM]	EC50 (HIV-1; [11]) [µM]	cytotoxic effect, HeLa (HeLa cells)	cytotoxic effect, L1210/0 [2]	EC50 (Moloney sarcoma virus) [µM]	MIC (minimum inhibitory concentration) (Moloney sarcoma virus)	EC50 (human CEM cells; Homo sapiens, CCRF-CEM) [µM]	EC50 (HIV-2 [3]) [µM]	EC50 (HIV-2 [4]; [12]) [µM]	EC50 (HIV-2 [4]; Third Series, CEM cells) [µM]	cytotoxic effect, CEM (human CEM T4 lymphocytes)	cytotoxic effect, FM3A/0 [5]	cytotoxic effect, Molt4/C8 (human Molt4/C8 cells)	further results
Cc1cn([C@H]2C[C@H](SSCCO)[C@@H](CO)O2)c(=O)[nH]c1=O [Compound 21, 3′-deoxythymidin-3′-yl 2-hydroxyethyl disulfide]	> 250	13.5 ± 3	17.5 ± 3.5	≧100	26 ± 3	5.9 ± 0.5	>100	> 200	> 50	14 ± 7	15 ± 7	347 ± 71	>500	128 ± 33	
C=CCSS[C@H]1C[C@H](n2cc(C)c(=O)[nH]c2=O)O[C@@H]1CO [Compound 20, 3′-deoxythymidin-3′-yl allyl disulfide]	53 ± 7	12.5 ± 3.5	17.5 ± 3.5	40 ± 7	43 ± 5	2.2 ± 0.3	100	48	> 50	15 ± 7	20 ± 7	128 ± 18	299 ± 45	34 ± 6	EC50 (human CEM cells): 46 µM
O=c1ccn([C@@H]2O[C@H](CO)C=C2SSC(Cl)(Cl)Cl)c(=O)[nH]1 [Compound 13, 2′,3′-didehydro-2′,3′-dideoxyuridin-2′-yl trichloromethyl disulfide]															EC50 ([6]; MCF7, Table 4, MCF-7): 194 µM; EC50 [7, 13]: 177 µM; EC50 ([7]; MCF-7 resistant to gemcitabine): 194 µM
CCCCSS[C@H]1C[C@H](n2cc(C)c(=O)[nH]c2=O)O[C@@H]1CO [Compound 24, 3′-deoxythymidin-3′-yl butyl disulfide]		8 ± 3	> 10	23 ± 2	32 ± 0	1 ± 0.5	100		> 10	> 10	> 10	44 ± 1	286 ± 24	28 ± 7	CC50 (CEM cells): 23.3 ± 0.6 µM
C[Si](C)(C)CCSC1=C[C@@H](CO)O[C@H]1n1ccc(=O)[nH]c1=O [Compound 1, 2′,3′-Didehydro-2′,3′-dideoxy-2′-(2-trimethylsilyl)ethylthiouridine]															activity at 50 µM ([8]; read-out: dATP concentration, % of control): 50%; activity at 50 µM ([8]; read-out: dCTP concentration, % of control): 42%; activity at 50 µM ([8]; read-out: dGTP concentration, % of control): 31%; activity at 50 µM ([8]; read-out: dTTP concentration, % of control): 85%; CC50 [6]: 69 µM; decrease of the incorporation of tritiated thymidine into the DNA ([9]; 50 μM): 38%; tritiated thymidine incorporated as a percentage of the control ([9]; 50 μM): 62%; decrease of the incorporation of tritiated thymidine into the DNA ([9]; 200 μM): 86%; tritiated thymidine incorporated as a percentage of the control ([9]; 200 μM): 14%; CC50 (human CEM cells; Homo sapiens, CCRF-CEM): 156 µM
NC(=O)NO [Hydroxyurea, hydroxyurea, reference compound]															activity at 63 µM ([8]; Hydroxyurea control, 63 μM, read-out: dTTP concentration, % of control): 51%
Cc1cn([C@H]2CC(SSCCCCCCO)[C@@H](CO)O2)c(=O)[nH]c1=O (some centres unmarked) [Compound 18]	107 ± 7	10.3 ± 5.7	22.5 ± 3.5	56 ± 8	44 ± 1	8.3 ± 2.3	>100	152	> 50	11.7 ± 2.9	17.5 ± 11	187 ± 1	≧500	66 ± 9	EC50 (HIV-1; read-out: EC50 HIV-1, First and Second Series, first table): 4 µM; EC50 (HIV-2 [4]; First and Second Series, first table, CEM cells): 6.5 ± 0.7 µM
Cc1cn([C@@H]2O[C@H](CO)C=C2SCC[Si](C)(C)C)c(=O)[nH]c1=O [Compound 3]															CC50 [6]: 40 µM; EC50 [7, 13]: 37 µM; EC50 ([7]; MCF-7 resistant to gemcitabine): 41 µM; CC50 (human CEM cells; Homo sapiens, CCRF-CEM): 13 µM
Cc1cn([C@H]2C[C@H](SSCCN)[C@@H](CO)O2)c(=O)[nH]c1=O.Cl [Compound 27, 3′-deoxythymidin-3′-yl 2-aminoethyl disulfide hydrochloride]	> 250	27.5 ± 3.5	20	>100	65 ± 9				150			437 ± 71	>500	163 ± 41	EC50 (HIV-2 [4]): 27.5 ± 3.5 µM

From patent US20100075917A1, “THIONUCLEOSIDES AND PHARMACEUTICAL APPLICATIONS” (priority 2006, published 2010)
